Assay results taken from US20190255091A1, “RNAi AGENTS FOR [sequence] B VIRUS INFECTION” (priority 2016, published 2019).

Columns and labels:
Hepatitis B Virus (HBV) [1] = assay: Serum HBV DNA levels in pHBV model mice (qPCR); type: in vivo; conditions: single s.c. injection day 1, Example 7
Source text: (§1) Six to eight-week-old female NOD.CB17-Prkdscid/NcrCrl (NOD-SCID) mice were transiently transfected in vivo with MC-HBV1.3 by hydrodynamic tail vein injection (Yang P L et al. “Hydrodynamic injection of viral DNA: a mouse model of acute hepatitis B virus infection,” PNAS USA 2002 Vol. 99: p. 13825-13830), administered 30 to 45 days prior to administration of an HBV RNAi agent or control. MC-HBV1.3 is a plasmid-derived minicircle that contains the same terminally redundant human hepatitis B virus sequence HBV1.3 as in plasmid pHBV1.3 and in the HBV1.3.32 transgenic mice (GenBank accession #V01460) (Guidotti L G et al., “High-level hepatitis B virus replication in transgenic mice,” J Virol 1995 Vol. 69, p 6158-6169.). 5 or 10 μg MC-HBV1.3 in Ringer's Solution in a total volume of 10% of the animal's body weight was injected into mice via tail vein to create pHBV model of chronic HBV infection. The solution was injected through a 27-gauge needle in 5-7 seconds as previously described (Zhang G et al., “High levels of foreign gene expression in hepatocytes after tail vein injection of naked plasmid DNA.” Human Gene Therapy 1999 Vol. 10, p 1735-1737.). At pre-dose (either day 1 pre-dose, day −1, or day −2), Hepatitis B surface antigen (HBsAg) HBsAg expression levels in serum were measured by ELISA and the mice were grouped according to average HBsAg expression levels.
(§2) HBV expression levels were normalized to pre-administration expression levels and to control mice injected with phosphate buffered saline (“PBS”).
Equal volumes of serum from mice in a group or subgroup were pooled to a final volume of 100 μL. DNA was isolated from serum samples using the QIAamp MinElute Virus Spin Kit (Qiagen, Valencia, Calif.) following the manufacturer's instructions. Sterile 0.9% saline was added to each sample to a final volume of 200 μL. Serum samples were added to tubes containing buffer and protease. Carrier RNA was added to aid in the isolation of small amounts of DNA. […] After incubating 15 min at 56° C., nucleic acids were precipitated from the lysates with ethanol and the entire solution applied to a column. After washing, the samples were eluted into a volume of 50 μL Buffer AVE.
The number of copies of HBV genomes in DNA isolated from the pHBV mouse model serum was determined by qPCR. Plasmid pSEAP-HBV353-777, encoding a short segment of the HBV genome within the S gene (bases 353-777 of GenBank accession #V01460), was used to create a six log standard curve. Samples with recovery of DNA below 2 standard deviations from the average, based on detection of pHCR/UbC-SEAP were omitted. TaqMan chemistry-based primers and probes with fluor/ZEN/IBFQ are utilized.
qPCR assays were performed on a 7500 Fast or StepOne Plus Real-Time PCR system (Life Technologies). For evaluation of HBV DNA in serum, DNA was isolated from singlet or duplicate purification steps from pooled group serum samples. Quantitations of HBV DNA and recovery control plasmid were determined by qPCR reactions performed in triplicate. The probes to quantitate HBV and pHCR/UbC-SEAP were included in each reaction.

Hepatitis B Virus (HBV) [2] = assay: Serum HBeAg levels in pHBV model mice (ELISA); type: in vivo; conditions: single s.c. injection day 1, Example 7; for Average HBeAg levels normalized to pre-treatment and PBS control: pooled serum
Source text: as §1, §2
HBeAg analysis was performed with the HBeAg enzyme linked immunosorbent assay (ELISA) as described by the manufacturer (DiaSorin) using serum diluted 4- to 20-fold in 5% nonfat dry milk. The amount of antigen was determined in the linear range of the assay and quantitated against HBeAg protein standards (Fitzgerald Industries International, catalog #30-AH18, Acton, Mass.).
HBeAg expression for each animal was normalized to the control group of mice injected with PBS in order to account for the non-treatment related decline in expression of MC-HBV1.3. For evaluation of HBeAg in serum, HBeAg is analyzed from pooled group or subgroup serum samples. First, the HBeAg level for each pooled group or subgroup was divided by the pre-treatment level of expression in the same group or subgroup in order to determine the ratio of expression “normalized to pre-treatment”. Expression at a specific time point was then normalized to the control group by dividing the “normalized to pre-treatment” ratio for a group or subgroup by the average “normalized to pre-treatment” ratio of all samples from the normal PBS control group.

## AD04776: HBV RNAi agent duplex AM05850-AS/AM06150-SS (antisense UACCAAUUUAUGCCUACAGCC; sense GGCUGUAGGCAUAAAUUGGUA; chemistry not fully specified)
Hepatitis B Virus (HBV) [1]; Day 8, 1.0 mg/kg
  Average Serum HBV DNA levels normalized to pre-treatment and PBS control: 0.601 ± 0.388
Hepatitis B Virus (HBV) [1]; Day 8, 2.0 mg/kg
  Average Serum HBV DNA levels normalized to pre-treatment and PBS control: 0.363 ± 0.128
Hepatitis B Virus (HBV) [1]; Day 8, 4.0 mg/kg
  Average Serum HBV DNA levels normalized to pre-treatment and PBS control: 0.224 ± 0.150
Hepatitis B Virus (HBV) [1]; Day 15, 1.0 mg/kg
  Average Serum HBV DNA levels normalized to pre-treatment and PBS control: 0.319 ± 0.125
Hepatitis B Virus (HBV) [1]; Day 15, 2.0 mg/kg
  Average Serum HBV DNA levels normalized to pre-treatment and PBS control: 0.374 ± 0.197
Hepatitis B Virus (HBV) [1]; Day 15, 4.0 mg/kg
  Average Serum HBV DNA levels normalized to pre-treatment and PBS control: 0.263 ± 0.185
Hepatitis B Virus (HBV) [1]; Day 22, 1.0 mg/kg
  Average Serum HBV DNA levels normalized to pre-treatment and PBS control: 0.279 ± 0.138
Hepatitis B Virus (HBV) [1]; Day 22, 2.0 mg/kg
  Average Serum HBV DNA levels normalized to pre-treatment and PBS control: 0.275 ± 0.146
Hepatitis B Virus (HBV) [1]; Day 22, 4.0 mg/kg
  Average Serum HBV DNA levels normalized to pre-treatment and PBS control: 0.335 ± 0.204
Hepatitis B Virus (HBV) [1]; Day 29, 1.0 mg/kg
  Average Serum HBV DNA levels normalized to pre-treatment and PBS control: 0.506 ± 0.525
Hepatitis B Virus (HBV) [1]; Day 29, 2.0 mg/kg
  Average Serum HBV DNA levels normalized to pre-treatment and PBS control: 0.385 ± 0.141
Hepatitis B Virus (HBV) [1]; Day 29, 4.0 mg/kg
  Average Serum HBV DNA levels normalized to pre-treatment and PBS control: 0.449 ± 0.108
Hepatitis B Virus (HBV) [1]; Day 36, 1.0 mg/kg
  Average Serum HBV DNA levels normalized to pre-treatment and PBS control: 0.444 ± 0.407
Hepatitis B Virus (HBV) [1]; Day 36, 2.0 mg/kg
  Average Serum HBV DNA levels normalized to pre-treatment and PBS control: 0.721 ± 0.043
Hepatitis B Virus (HBV) [1]; Day 36, 4.0 mg/kg
  Average Serum HBV DNA levels normalized to pre-treatment and PBS control: 0.603 ± 0.068
Hepatitis B Virus (HBV) [2]; Day 8, 1.0 mg/kg
  Average HBeAg fold knockdown normalized to pre-treatment and PBS control: 2.6 Fold KD
  Average HBeAg levels normalized to pre-treatment and PBS control: 0.381
Hepatitis B Virus (HBV) [2]; Day 8, 2.0 mg/kg
  Average HBeAg fold knockdown normalized to pre-treatment and PBS control: 3.6 Fold KD
  Average HBeAg levels normalized to pre-treatment and PBS control: 0.275
Hepatitis B Virus (HBV) [2]; Day 8, 4.0 mg/kg
  Average HBeAg fold knockdown normalized to pre-treatment and PBS control: 5.2 Fold KD
  Average HBeAg levels normalized to pre-treatment and PBS control: 0.193
Hepatitis B Virus (HBV) [2]; Day 15, 1.0 mg/kg
  Average HBeAg fold knockdown normalized to pre-treatment and PBS control: 2.7 Fold KD
  Average HBeAg levels normalized to pre-treatment and PBS control: 0.368
Hepatitis B Virus (HBV) [2]; Day 15, 2.0 mg/kg
  Average HBeAg fold knockdown normalized to pre-treatment and PBS control: 3.9 Fold KD
  Average HBeAg levels normalized to pre-treatment and PBS control: 0.255
Hepatitis B Virus (HBV) [2]; Day 15, 4.0 mg/kg
  Average HBeAg fold knockdown normalized to pre-treatment and PBS control: 4.7 Fold KD
  Average HBeAg levels normalized to pre-treatment and PBS control: 0.213
Hepatitis B Virus (HBV) [2]; Day 22, 1.0 mg/kg
  Average HBeAg fold knockdown normalized to pre-treatment and PBS control: 2.8 Fold KD
  Average HBeAg levels normalized to pre-treatment and PBS control: 0.355
Hepatitis B Virus (HBV) [2]; Day 22, 2.0 mg/kg
  Average HBeAg fold knockdown normalized to pre-treatment and PBS control: 2.7 Fold KD
  Average HBeAg levels normalized to pre-treatment and PBS control: 0.370
Hepatitis B Virus (HBV) [2]; Day 22, 4.0 mg/kg
  Average HBeAg fold knockdown normalized to pre-treatment and PBS control: 3.8 Fold KD
  Average HBeAg levels normalized to pre-treatment and PBS control: 0.260
Hepatitis B Virus (HBV) [2]; Day 29, 1.0 mg/kg
  Average HBeAg fold knockdown normalized to pre-treatment and PBS control: 1.8 Fold KD
  Average HBeAg levels normalized to pre-treatment and PBS control: 0.564
Hepatitis B Virus (HBV) [2]; Day 29, 2.0 mg/kg
  Average HBeAg fold knockdown normalized to pre-treatment and PBS control: 2.0 Fold KD
  Average HBeAg levels normalized to pre-treatment and PBS control: 0.495
Hepatitis B Virus (HBV) [2]; Day 29, 4.0 mg/kg
  Average HBeAg fold knockdown normalized to pre-treatment and PBS control: 3.3 Fold KD
  Average HBeAg levels normalized to pre-treatment and PBS control: 0.307
Hepatitis B Virus (HBV) [2]; Day 36, 1.0 mg/kg
  Average HBeAg fold knockdown normalized to pre-treatment and PBS control: 2.1 Fold KD
  Average HBeAg levels normalized to pre-treatment and PBS control: 0.483
Hepatitis B Virus (HBV) [2]; Day 36, 2.0 mg/kg
  Average HBeAg fold knockdown normalized to pre-treatment and PBS control: 2.2 Fold KD
  Average HBeAg levels normalized to pre-treatment and PBS control: 0.449
Hepatitis B Virus (HBV) [2]; Day 36, 4.0 mg/kg
  Average HBeAg fold knockdown normalized to pre-treatment and PBS control: 2.2 Fold KD
  Average HBeAg levels normalized to pre-treatment and PBS control: 0.464
